Patent US20230203043A1, “NOVEL IMIDAZOPYRAZINE DERIVATIVES” (Hoffmann-La Roche Inc., priority 2020, published 2023)
Counter-ions that a name gives are not always drawn. Like-named read-outs stand apart in the source and are kept apart here.

Tested on: Acinetobacter baumannii ATCC17961
Experiment: Antimicrobial susceptibility testing: 90% growth inhibitory concentration (IC90) determination in Iso-Sensitest broth, OD600 growth
Format: cell-based
Procedure, shortened: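 Growth monitored at 600 nm every 20 min for 16 h at 35±2 °C, inoculum ~5×10^(5) CFU/ml in Iso-Sensitest medium. Compounds in 10-point twofold series, e.g. 50 to 0.097 μM final; 90% inhibitory concentration taken from log-phase growth.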

[1] = Acinetobacter baumannii, ATCC17961, 16 h, strain ATCC 17961, OD600 growth over 16 h, read-out: A. baumannii ATCC 17961 IC90
[2] = Acinetobacter baumannii, ATCC17961, 16 h, read-out: A. baumannii ATCC 17961 IC90 (uM), strain ATCC 17961, OD600 growth over 16 h

O=C(c1ccc(Nc2nccn3c(-c4c[nH]nc4C(F)(F)F)cnc23)cc1Cl)N1CC2(C1)CN(C(=O)[C@@H]1CCCN1)C2 [Example 688, (S)-(2-chloro-4-((3-(3-(trifluoromethyl)-1H-pyrazol-4-yl)imidazo[1,2-a]pyrazin-8-yl)amino)phenyl)(6-prolyl-2,6-diazaspiro[3.3]heptan-2-yl)methanone] was tested, and the IC90 [1] was 0.349 µM.

In the case of Cc1cc(Nc2nccn3c(-c4cn(CC#N)nc4C(F)(F)F)cnc23)cc(F)c1C(=O)N[C@H](C)CNC(=O)CN [Example 689, (R)-N-(1-(2-aminoacetamido)propan-2-yl)-4-((3-(1-(cyanomethyl)-3-(trifluoromethyl)-1H-pyrazol-4-yl)imidazo[1,2-a]pyrazin-8-yl)amino)-2-fluoro-6-methylbenzamide formate], the IC90 [2] is reported as 0.351 µM.

With Cc1cc(Nc2nccn3c(-c4cn(CC#N)nc4C(F)(F)F)cnc23)ccc1C(=O)N[C@H](C)C(=O)N1CCC(N)CC1 [Example 690, N-[(1R)-2-(4-amino-1-piperidyl)-1-methyl-2-oxo-ethyl]-4-[[3-[1-(cyanomethyl)-3-(trifluoromethyl)pyrazol-4-yl]imidazo[1,2-a]pyrazin-8-yl]amino]-2-methyl-benzamide formate] the IC90 [2] was 0.351 µM.

Work on CCc1cc(Nc2nccn3c(-c4c[nH]nc4C(F)(F)F)cnc23)ccc1C(=O)NCCNC(=O)CN [Example 691, N-(2-(2-aminoacetamido)ethyl)-2-ethyl-4-((3-(3-(trifluoromethyl)-1H-pyrazol-4-yl)imidazo [1,2-a]pyrazin-8-yl)amino)benzamide formate] yielded an IC90 [2] of 0.352 µM.

Cc1cc(Nc2nccn3c(-c4cn(CC(F)F)nc4C(F)(F)F)cnc23)cc(F)c1C(=O)N1CCN(C(=O)[C@H]2[C@@H]3CNC[C@@H]32)CC1 [Example 692, (4-((1R,5S,6r)-3-azabicyclo[3.1.0]hexane-6-carbonyl)piperazin-1-yl)(4-((3-(1-(2,2-difluoroethyl)-3-(trifluoromethyl)-1H-pyrazol-4-yl)imidazo[1,2-a]pyrazin-8-yl)amino)-2-fluoro-6-methylphenyl)methanone] showed an IC90 [1] of 0.356 µM.

With CN(C)CCNC(=O)CNC(=O)c1ccc(Nc2nccn3c(-c4cn(CC#N)nc4C(F)(F)F)cnc23)cc1Cl [Example 693, 2-chloro-4-[[3-[1-(cyanomethyl)-3-(trifluoromethyl)pyrazol-4-yl]imidazo[1,2-a]pyrazin-8-yl]amino]-N-[2-[2-(dimethylamino)ethylamino]-2-oxo-ethyl]benzamide formate] the IC90 [2] was 0.358 µM.

C#CCn1cc(-c2cnc3c(Nc4ccc(C(=O)N5CCN(C(=O)[C@H](C)N)CC5)c(CC)c4)nccn23)c(C(F)F)n1 [Example 694, (S)-2-amino-1-(4-(4-((3-(3-(difluoromethyl)-1-(prop-2-yn-1-yl)-1H-pyrazol-4-yl)imidazo[1,2-a]pyrazin-8-yl)amino)-2-ethylbenzoyl)piperazin-1-yl)propan-1-one] showed an IC90 [1] of 0.358 µM.

Cc1cc(Nc2nccn3c(-c4cn(CC#N)nc4C(F)(F)F)cnc23)cc(F)c1C(=O)N1CCN(C(=O)CN)CC1 [Example 695, 2-(4-(8-((3-fluoro-4-(4-glycylpiperazine-1-carbonyl)-5-methylphenyl)amino)imidazo[1,2-a]pyrazin-3-yl)-3-(trifluoromethyl)-1H-pyrazol-1-yl) acetonitrile formate] showed an IC90 [2] of 0.362 µM.

With CCc1cc(Nc2nccn3c(-c4c[nH]nc4C(F)(F)F)cnc23)ccc1C(=O)NCCNC(=O)[C@@H](C)N [Example 696, (R)-N-(2-(2-aminopropanamido)ethyl)-2-ethyl-4-((3-(3-(trifluoromethyl)-1H-pyrazol-4-yl)imidazo [1,2-a]pyrazin-8-yl)amino)benzamide formate] the IC90 [2] was 0.37 µM.

CCc1cc(Nc2nccn3c(-c4cn(CC#N)nc4C(F)(F)F)cnc23)ccc1C(=O)N[C@H](C)C(=O)N1CCC(N)CC1 [Example 697, N-[(1R)-2-(4-amino-1-piperidyl)-1-methyl-2-oxo-ethyl]-4-[[3-[1-(cyanomethyl)-3-(trifluoromethyl)pyrazol-4-yl]imidazo[1,2-a]pyrazin-8-yl]amino]-2-ethyl-benzamide formate] was tested, and the IC90 [2] was 0.371 µM.

Cc1cc(Nc2nccn3c(-c4cn(CC(F)F)nc4C(F)(F)F)cnc23)cc(F)c1C(=O)N1CCN(C(=O)[C@@H]2C[C@@H](O)CN2)CC1 [Example 698, (4-(4-((3-(1-(2,2-difluoroethyl)-3-(trifluoromethyl)-1H-pyrazol-4-yl)imidazo[1,2-a]pyrazin-8-yl)amino)-2-fluoro-6-methylbenzoyl)piperazin-1-yl)((2S,4R)-4-hydroxypyrrolidin-2-yl)methanone] was tested, and the IC90 [1] was 0.374 µM.

With Cc1cc(Nc2nccn3c(-c4cn(CC#N)nc4C(F)(F)F)cnc23)cc(F)c1C(=O)N1CCN(C(=O)[C@H]2C[C@@H](N)C2)CC1 [Example 699, 2-(4-(8-((4-(4-((1s,3s)-3-aminocyclobutane-1-carbonyl)piperazine-1-carbonyl)-3-fluoro-5-methylphenyl)amino)imidazo[1,2-a]pyrazin-3-yl)-3-(trifluoromethyl)-1H-pyrazol-1-yl) acetonitrile formate] the IC90 [1] was 0.38 µM.

CCc1cc(Nc2nccn3c(-c4cn(C(C)C#N)nc4C(F)(F)F)cnc23)ccc1C(=O)NCC1CC1N (centres unmarked) [Example 700, N-((2-aminocyclopropyl)methyl)-4-((3-(1-(1-cyanoethyl)-3-(trifluoromethyl)-1H-pyrazol-4-yl)imidazo[1,2-a]pyrazin-8-yl)amino)-2-ethylbenzamide formate] was tested, and the IC90 [2] was 0.382 µM.

For Cc1cc(Nc2nccn3c(-c4cn(CC(F)F)nc4C(F)(F)F)cnc23)cc(F)c1C(=O)N1CCN(C(=O)[C@H]2C[C@@H](N)C2)CC1 [Example 701, (4-((1s,3s)-3-aminocyclobutane-1-carbonyl)piperazin-1-yl)(4-((3-(1-(2,2-difluoroethyl)-3-(trifluoromethyl)-1H-pyrazol-4-yl)imidazo[1,2-a]pyrazin-8-yl)amino)-2-fluoro-6-methylphenyl)methanone], the IC90 [1] was 0.382 µM.

With CCc1cc(Nc2nccn3c(-c4cn(CC#N)nc4C(F)(F)F)cnc23)ccc1C(=O)NCCCNC(=O)CCN [Example 702, N-(3-(3-aminopropanamido)propyl)-4-((3-(1-(cyanomethyl)-3-(trifluoromethyl)-1H-pyrazol-4-yl)imidazo[1,2-a]pyrazin-8-yl)amino)-2-ethylbenzamide formate] the IC90 [2] was 0.383 µM.

In the case of Cc1cc(Nc2nccn3c(-c4cn(CC#N)nc4C(F)(F)F)cnc23)cc(F)c1C(=O)N1CCN(C(=O)C2CCNCC2)CC1 [Example 703, 2-(4-(8-((3-fluoro-5-methyl-4-(4-(piperidine-4-carbonyl)piperazine-1-carbonyl)phenyl)amino)imidazo[1,2-a]pyrazin-3-yl)-3-(trifluoromethyl)-1H-pyrazol-1-yl)acetonitrile formate], the IC90 [2] is reported as 0.383 µM.

Cc1cc(Nc2nccn3c(-c4cn(CC(F)F)nc4C(F)(F)F)cnc23)cc(F)c1C(=O)N[C@H](C)CN [Example 704, (R)-N-(1-aminopropan-2-yl)-4-((3-(1-(2,2-difluoroethyl)-3-(trifluoromethyl)-1H-pyrazol-4-yl)imidazo[1,2-a]pyrazin-8-yl)amino)-2-fluoro-6-methylbenzamide] was tested, and the IC90 [1] was 0.386 µM.

Cc1cc(Nc2nccn3c(-c4cn(CC(F)F)nc4C(F)(F)F)cnc23)cc(F)c1C(=O)N[C@H](C)CNC(=O)C1CCNCC1 [Example 705, (R)-N-(2-(4-((3-(1-(2,2-difluoroethyl)-3-(trifluoromethyl)-1H-pyrazol-4-yl)imidazo[1,2-a]pyrazin-8-yl)amino)-2-fluoro-6-methylbenzamido)propyl)piperidine-4-carboxamide] was tested, and the IC90 [1] was 0.391 µM.

Molecule Cc1cc(Nc2nccn3c(-c4cn(CC#N)nc4C(F)(F)F)cnc23)ccc1C(=O)NCC(=O)N1CCNCC1 [Example 706, 4-[[3-[1-(cyanomethyl)-3-(trifluoromethyl)pyrazol-4-yl]imidazo[1,2-a]pyrazin-8-yl]amino]-2-methyl-N-(2-oxo-2-piperazin-1-yl-ethyl) benzamide formate] has an IC90 [1] of 0.394 µM.

Cc1cc(Nc2nccn3c(-c4cn(CC(F)F)nc4C(F)(F)F)cnc23)cc(F)c1C(=O)N1CCN(C(=O)C2CCNCC2)CC1 [Example 707, (4-(4-((3-(1-(2,2-difluoroethyl)-3-(trifluoromethyl)-1H-pyrazol-4-yl)imidazo[1,2-a]pyrazin-8-yl)amino)-2-fluoro-6-methylbenzoyl)piperazin-1-yl)(piperidin-4-yl) methanone] gave an IC90 [1] of 0.395 µM.

CCc1cc(Nc2nccn3c(-c4c[nH]nc4C(F)(F)F)cnc23)ccc1C(=O)NCCCNC(=O)CNC(=O)C(F)(F)F [Example 708, 2-ethyl-N-(3-(2-(2,2,2-trifluoroacetamido)acetamido)propyl)-4-((3-(3-(trifluoromethyl)-1H-pyrazol-4-yl)imidazo [1,2-a]pyrazin-8-yl)amino)benzamide] showed an IC90 [1] of 0.397 µM.

In the case of Cc1cc(Nc2nccn3c(-c4cn(CC#N)nc4C(F)(F)F)cnc23)cc(F)c1C(=O)N[C@H](C)CNC(=O)[C@H]1C[C@@H](N)C1 [Example 709, N-((R)-1-((1s,3S)-3-aminocyclobutane-1-carboxamido)propan-2-yl)-4-((3-(1-(cyanomethyl)-3-(trifluoromethyl)-1H-pyrazol-4-yl)imidazo[1,2-a]pyrazin-8-yl)amino)-2-fluoro-6-methylbenzamide formate], the IC90 (strain ATCC 17961, OD600 growth over 16 h, read-out: A. baumannii ATCC 17961 IC90) is reported as 0.404 µM.

C[C@@H](NC(=O)c1ccc(Nc2nccn3c(-c4cn(CC#N)nc4C(F)(F)F)cnc23)cc1Cl)C(=O)N[C@H]1CCNC1 [Example 710, 2-chloro-4-[[3-[1-(cyanomethyl)-3-(trifluoromethyl)pyrazol-4-yl]imidazo[1,2-a]pyrazin-8-yl]amino]-N-[(1R)-1-methyl-2-oxo-2-[[(3S)-pyrrolidin-3-yl]amino]ethyl] benzamide formate] gave an IC90 [1] of 0.408 µM.
